According to the supplement of paper PMC10307832:

Columns and labels:
Experiment in all cases: relative viability (nuclei count vs DMSO), 5 days (fraction); higher = more cells survive
[1] = system: COR-L23
Procedure, shortened: (§1)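 Medians of duplicate plates are given as relative viability. That measure is the nuclei count in treated wells divided by the count in vehicle wells. Counts were taken on 4× images of lung cancer cell lines in 1536-well plates, 5 days after pin-tool dosing the day after seeding with one drug alone or a fixed anchor-drug dose plus five library-drug doses (not always all listed) in √10 steps.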

[2] = system: ChaGo-K-1
Procedure, shortened: as §1

[3] = system: EMC-BAC-2
Procedure, shortened: as §1

[4] = system: EPLC-272H
Procedure, shortened: as §1

[5] = system: H3255
Procedure, shortened: as §1

[6] = system: HCC-44
Procedure, shortened: as §1

[7] = system: HCC-827
Procedure, shortened: as §1

[8] = system: LCLC-103H
Procedure, shortened: as §1

[9] = system: LU99A
Procedure, shortened: as §1

[10] = system: NCI-H1395
Procedure, shortened: as §1

[11] = system: NCI-H1651
Procedure, shortened: as §1

[12] = system: NCI-H1793
Procedure, shortened: as §1

[13] = system: NCI-H1944
Procedure, shortened: as §1

[14] = system: NCI-H2023
Procedure, shortened: as §1

[15] = system: NCI-H2085
Procedure, shortened: as §1

[16] = system: NCI-H2087
Procedure, shortened: as §1

[17] = system: NCI-H2405
Procedure, shortened: as §1

[18] = system: NCI-H520
Procedure, shortened: as §1

[19] = system: NCI-H650
Procedure, shortened: as §1

[20] = system: NCI-H838
Procedure, shortened: as §1

[21] = system: SK-MES-1
Procedure, shortened: as §1

In the case of `COc1nc(C)cnc1NS(=O)(=O)c1cccnc1-c1ccc(-c2nnco2)cc1` [Zibotentan] + Cc1cc(Nc2cc(N3CCN(C)CC3)nc(Sc3ccc(NC(=O)C4CC4)cc3)n2)n[nH]1 [Tozasertib] (partner 0.1 µM), the relative viability ([1]; first compound 0.08 µM) is reported as 0.218, the relative viability ([1]; first compound 0.253 µM) is reported as 0.216 and the relative viability ([1]; first compound 0.8 µM) is reported as 0.224. The relative viability ([1]; first compound 2.53 µM) was 0.337, the relative viability ([2]; first compound 0.08 µM) was 0.208 and the relative viability ([2]; first compound 0.253 µM) was 0.218. It also gave a relative viability ([2]; first compound 0.8 µM) of 0.21, a relative viability ([2]; first compound 2.53 µM) of 0.24 and a relative viability ([3]; first compound 0.08 µM) of 0.286. For the same compound, the relative viability ([3]; first compound 0.8 µM) was 0.293, the relative viability ([3]; first compound 2.53 µM) was 0.274 and the relative viability ([4]; first compound 0.08 µM) was 0.264. The relative viability ([4]; first compound 0.253 µM) was 0.234, the relative viability ([4]; first compound 0.8 µM) was 0.331 and the relative viability ([4]; first compound 2.53 µM) was 0.281. It also gave a relative viability ([5]; first compound 0.08 µM) of 0.693, a relative viability ([5]; first compound 0.253 µM) of 0.604 and a relative viability ([5]; first compound 0.8 µM) of 0.742. The relative viability ([5]; first compound 2.53 µM) was 0.888, the relative viability ([6]; first compound 0.08 µM) was 1.33 and the relative viability ([6]; first compound 0.8 µM) was 0.852. For the same compound, the relative viability ([6]; first compound 2.53 µM) was 0.862, the relative viability ([7]; first compound 0.08 µM) was 0.438 and the relative viability ([7]; first compound 0.253 µM) was 0.411. The relative viability ([7]; first compound 0.8 µM) was 0.409, the relative viability ([7]; first compound 2.53 µM) was 0.371 and the relative viability ([8]; first compound 0.08 µM) was 0.451. It also gave a relative viability ([8]; first compound 0.253 µM) of 0.509, a relative viability ([8]; first compound 0.8 µM) of 0.412 and a relative viability ([8]; first compound 2.53 µM) of 0.478. It also gave a relative viability ([9]; first compound 0.08 µM) of 0.319, a relative viability ([9]; first compound 0.253 µM) of 0.25 and a relative viability ([9]; first compound 0.8 µM) of 0.302. The relative viability ([9]; first compound 2.53 µM) was 0.301, the relative viability ([10]; first compound 0.08 µM) was 0.74 and the relative viability ([10]; first compound 0.253 µM) was 0.762. It also gave a relative viability ([10]; first compound 0.8 µM) of 0.733, a relative viability ([10]; first compound 2.53 µM) of 0.794 and a relative viability ([11]; first compound 0.08 µM) of 0.678. The relative viability ([11]; first compound 0.253 µM) was 0.552, the relative viability ([11]; first compound 0.8 µM) was 0.767 and the relative viability ([11]; first compound 2.53 µM) was 0.717. The relative viability ([12]; first compound 0.08 µM) was 0.336, the relative viability ([12]; first compound 0.253 µM) was 0.352 and the relative viability ([12]; first compound 0.8 µM) was 0.273. For the same compound, the relative viability ([12]; first compound 2.53 µM) was 0.3, the relative viability ([13]; first compound 0.08 µM) was 0.252 and the relative viability ([13]; first compound 0.253 µM) was 0.236. For the same compound, the relative viability ([13]; first compound 0.8 µM) was 0.242, the relative viability ([13]; first compound 2.53 µM) was 0.271 and the relative viability ([14]; first compound 0.08 µM) was 0.356. For the same compound, the relative viability ([14]; first compound 0.253 µM) was 0.254, the relative viability ([14]; first compound 0.8 µM) was 0.298 and the relative viability ([14]; first compound 2.53 µM) was 0.387. For the same compound, the relative viability ([15]; first compound 0.08 µM) was 0.788, the relative viability ([15]; first compound 0.253 µM) was 0.698 and the relative viability ([15]; first compound 0.8 µM) was 0.703. The relative viability ([15]; first compound 2.53 µM) was 0.821, the relative viability ([16]; first compound 0.08 µM) was 0.249 and the relative viability ([16]; first compound 0.253 µM) was 0.268. It also gave a relative viability ([16]; first compound 0.8 µM) of 0.249, a relative viability ([16]; first compound 2.53 µM) of 0.238 and a relative viability ([17]; first compound 0.08 µM) of 0.747. It also gave a relative viability ([17]; first compound 0.253 µM) of 0.716, a relative viability ([17]; first compound 0.8 µM) of 0.798 and a relative viability ([17]; first compound 2.53 µM) of 0.77. The relative viability ([18]; first compound 0.08 µM) was 0.431, the relative viability ([18]; first compound 0.253 µM) was 0.479 and the relative viability ([18]; first compound 0.8 µM) was 0.441. The relative viability ([18]; first compound 2.53 µM) was 0.442, the relative viability ([19]; first compound 0.08 µM) was 0.871 and the relative viability ([19]; first compound 0.253 µM) was 0.699. For the same compound, the relative viability ([19]; first compound 0.8 µM) was 0.692, the relative viability ([19]; first compound 2.53 µM) was 0.738 and the relative viability ([20]; first compound 0.08 µM) was 0.284. The relative viability ([20]; first compound 0.253 µM) was 0.229, the relative viability ([20]; first compound 0.8 µM) was 0.274 and the relative viability ([20]; first compound 2.53 µM) was 0.329. For the same compound, the relative viability ([21]; first compound 0.08 µM) was 0.999, the relative viability ([21]; first compound 0.253 µM) was 0.809 and the relative viability ([21]; first compound 0.8 µM) was 0.874. For the same compound, the relative viability ([21]; first compound 2.53 µM) was 0.877.
